Experimental data taken from paper PMC8037814, “Polymorphic Characterization, Pharmacokinetics, and Anti-Inflammatory Activity of Ginsenoside Compound K Polymorphs” (Molecules, 2021).
“And” between values parts separate entries of the source, which are not always exact repeats. Equal entries are not always repeated. Where two headings read alike, the source gives them in different places.

Assay: Pharmacokinetics after intravenous administration of CK in rats (10 mg/kg)
Type: in vivo, Sprague-Dawley rats
Settings: male rats, i.v. 10 mg/kg; for MRT last: read-out: MRT(0-t); for half-life: read-out: t1/2z (converted)
Procedure: All samples were analyzed with a triple quadrupole LC-MS/MS (API 4000 LC-MS/MS, AB Sciex, Framingham, MA, USA) coupled with an Agilent 1200 HPLC system (Agilent Technologies, Palo Alto, CA, USA). The MS was equipped with an electrospray system (ESI). The N2 gas temperature and ion-spray voltage were set to 550 °C and 4.5 kV, respectively. CK was measured in multiple reaction monitoring (MRM) mode using a negative electrospray ionization source at m/z 667.4 → 621.2 for CK (CID 25.6 v) and m/z 271.2 → 228.8 for internal standard (IS, (E)-5-(4-fluorostyryl)-2-isopropylbenzene-1,3-diol, Welichem Biotech Inc., Wayburne Drive Burnaby, BC, Canada) (CID 28.3 v) with a dwell time of 0.1 s.
Rats were divided randomly into 5 groups of six animals each (sex in half) and given 7 days to acclimatize to the facility before the experiments began. The four forms of CK were suspended in 0.5% sodium carboxymethyl cellulose (CMC-Na) solution and orally administered to rats at a dose of 20 mg/kg. A CK solution in a mixed solvent of dimethyl sulfoxide (DMSO)/castor oil/physiologic saline (3:5:92, v/v) was intravenously administered to the remaining group via the tail vein at a dose of 10 mg/kg. Blood samples were collected by retro-orbital puncture at the following times: 0.167, 0.333, 0.667, 1, 2, 3, 4, 6, 9, 12, and 24 h for the oral administration, and at 0.0083, 0.05, 0.133, 0.25, 0.5, 1, 2, 4, 6, and 9 h for the intravenous administration. Plasma samples were obtained by centrifuging a heparinized blood tube at 4000 rpm for 5 min and then stored at −70 °C until analysis.
The procedure for drug extraction from plasma samples was as follows: 0.2 mL acetonitrile, 0.2 mL plasma sample, and 10 μL IS (1 µg/mL) were added into a 1.5 mL Eppendorf-type tube. This mixture was vortexed for 1 min and then treated with 0.8 mL of methyl tert-butyl ether (MTBE) to precipitate the plasma proteins. After a mechanical vortex for 1 min and subsequent centrifugation (4000 rpm, 5 min), 0.8 mL of the supernatant was transferred and blow-dried with N2 at 40 °C in a water bath. Finally, the residue was dissolved in 120 μL of mobile phase, and then 10 μL was subjected to HPLC for analysis. […] Intra- and inter-day precision and accuracy never exceeded 15% by analyzing six replicate samples.
The CK pharmacokinetic parameters in rats, including the area under the curve (AUC(0–t) and AUC(0–∞)), mean residence time (MRT(0–t) and MRT(0–∞)), maximum concentration (Cmax), time to maximum concentration (Tmax), half-life (t1/2), apparent distribution volume (V), and total plasma clearance (CL), were derived from plasma concentration-time curves by using non-compartmental analysis (NCA) with DAS 2.0 software (Drug And Statistics, Mathematical Pharmacology Professional Committee of China, Shanghai, China). The absolute bioavailability (Fabs) was calculated from the dose-adjusted ratio of AUCp.o. to AUCi.v.. One-way analysis of variance (ANOVA) by SPSS 11.5 (SPSS Inc., Chicago, IL, USA) was conducted to compare the primary PK parameters.

[1] = male, Sprague-Dawley, rat, plasma, iv, 10 mg/kg, Mean±SD, read-out: Plasma concentrations of CK
[2] = male, Sprague-Dawley, rat, plasma, iv, 10 mg/kg, individual rats 1-3, read-out: Plasma concentrations of CK
[3] = male, Sprague-Dawley, rat, plasma, iv, 10 mg/kg, Mean±SD
[4] = male, Sprague-Dawley, rat, plasma, iv, 10 mg/kg, individual rats 1-3

## CC(C)=CCCC(C)(OC1OC(CO)C(O)C(O)C1O)C1CCC2(C)C1C(O)CC1C3(C)CCC(O)C(C)(C)C3CCC12C [CK, 20-O-β-D-glucopyranosyl-20(S)-protopanaxadiol]
0.25 h, individual rats 1-3, 10 mg/kg
  Plasma concentrations of CK: 664.52 ng/mL and 1307.24 ng/mL
0.5 h, individual rats 1-3, 10 mg/kg
  Plasma concentrations of CK: 214.44 ng/mL and 391.89 ng/mL
1 h, individual rats 1-3, 10 mg/kg
  Plasma concentrations of CK: 75.42 ng/mL and 107.64 ng/mL
2 h, individual rats 1-3, 10 mg/kg
  Plasma concentrations of CK: 41.16 ng/mL and 54.90 ng/mL
4 h, individual rats 1-3, 10 mg/kg
  Plasma concentrations of CK: 42.63 ng/mL and 32.27 ng/mL and 85.89 ng/mL
6 h, individual rats 1-3, 10 mg/kg
  Plasma concentrations of CK: 14.03 ng/mL and 27.30 ng/mL
9 h, individual rats 1-3, 10 mg/kg
  Plasma concentrations of CK: 11.73 ng/mL and 16.36 ng/mL
Mean±SD
  CLz/F: 90 ± 18 mL/min/kg
  Vz/F: 24.21 ± 7.69 L/kg
Individual rats 1-3, 10 mg/kg
  AUC(0-t): 2963.73 ng·h/mL and 3980.16 ng·h/mL
  AUC(0-∞): 3012.98 ng·h/mL and 4074.46 ng·h/mL
  CLz/F: 77.7 mL/min/kg and 111 mL/min/kg and 81.8 mL/min/kg
  MRT(0-t): 19.2 min and 27.2 min
  MRT(0-∞): 22.8 min and 32.4 min and 47.4 min
  Vz/F: 15.34 L/kg and 28.92 L/kg and 28.37 L/kg
  t1/2z: 181 min and 241 min
[1]
  concentration at 0.5 min: 71700 ± 5620 ng/mL
  concentration at 0.05 h: 17100 ± 5230 ng/mL
[2]
  concentration at 0.5 min: 78100 ng/mL
  concentration at 0.05 h: 21700 ng/mL
male, Sprague-Dawley, rat, plasma, iv, 10 mg/kg, 8 min, Mean±SD, read-out: Plasma concentrations of CK
  concentration at 8 min: 2280 ± 940 ng/mL
male, Sprague-Dawley, rat, plasma, iv, 10 mg/kg, 0.25 h, Mean±SD, read-out: Plasma concentrations of CK
  concentration at 0.25 h: 1080 ± 359 ng/mL
male, Sprague-Dawley, rat, plasma, iv, 10 mg/kg, 0.25 h, individual rats 1-3, read-out: Plasma concentrations of CK
  concentration at 0.25 h: 1260 ng/mL
male, Sprague-Dawley, rat, plasma, iv, 10 mg/kg, 0.5 h, Mean±SD, read-out: Plasma concentrations of CK
  concentration at 0.5 h: 333 ± 103 ng/mL
male, Sprague-Dawley, rat, plasma, iv, 10 mg/kg, 0.5 h, individual rats 1-3, read-out: Plasma concentrations of CK
  concentration at 0.5 h: 393 ng/mL
male, Sprague-Dawley, rat, plasma, iv, 10 mg/kg, 1 h, Mean±SD, read-out: Plasma concentrations of CK
  concentration at 1 h: 95.5 ± 17.5 ng/mL
male, Sprague-Dawley, rat, plasma, iv, 10 mg/kg, 1 h, individual rats 1-3, read-out: Plasma concentrations of CK
  concentration at 1 h: 103 ng/mL
male, Sprague-Dawley, rat, plasma, iv, 10 mg/kg, 2 h, Mean±SD, read-out: Plasma concentrations of CK
  concentration at 2 h: 52.1 ± 9.87 ng/mL
male, Sprague-Dawley, rat, plasma, iv, 10 mg/kg, 2 h, individual rats 1-3, read-out: Plasma concentrations of CK
  concentration at 2 h: 60.3 ng/mL
male, Sprague-Dawley, rat, plasma, iv, 10 mg/kg, 4 h, Mean±SD, read-out: Plasma concentrations of CK
  concentration at 4 h: 53.6 ± 28.4 ng/mL
male, Sprague-Dawley, rat, plasma, iv, 10 mg/kg, 6 h, Mean±SD, read-out: Plasma concentrations of CK
  concentration at 6 h: 20.3 ± 6.66 ng/mL
male, Sprague-Dawley, rat, plasma, iv, 10 mg/kg, 6 h, individual rats 1-3, read-out: Plasma concentrations of CK
  concentration at 6 h: 19.7 ng/mL
male, Sprague-Dawley, rat, plasma, iv, 10 mg/kg, 9 h, Mean±SD, read-out: Plasma concentrations of CK
  concentration at 9 h: 12.4 ± 3.64 ng/mL
male, Sprague-Dawley, rat, plasma, iv, 10 mg/kg, 9 h, individual rats 1-3, read-out: Plasma concentrations of CK
  concentration at 9 h: 9.16 ng/mL
[3]
  AUC(0-inf): 3790 ± 685 ng·h/mL
  MRT last: 21.6 ± 4.8 min
  half-life: 186 ± 52.2 min
male, Sprague-Dawley, rat, plasma, iv, 10 mg/kg, Mean±SD, read-out: AUC(0-t)
  AUC(0-t): 3740 ± 684 ng·h/mL
male, Sprague-Dawley, rat, plasma, iv, 10 mg/kg, Mean±SD, read-out: MRT(0-∞)
  MRT inf: 34.2 ± 12.6 min
[4]
  AUC(0-inf): 4290 ng·h/mL
  MRT last: 18 min
  half-life: 137 min
male, Sprague-Dawley, rat, plasma, iv, 10 mg/kg, individual rats 1-3, read-out: AUC(0-t)
  AUC(0-t): 4260 ng·h/mL
